Experiments:
[1] = target: T1, aldose reductase (human recombinant, expressed in SF 9 cells) (Homo sapiens, UniProt P15121); experiment: Aldose reductase assay, reduction of glucose to sorbitol (NADPH oxidation, absorbance at 340 nm); format: biochemical; details: Lineweaver Burk plots nearly parallel; glucose and glyceraldehyde substrates
T1 construct: host or cells: SF 9 cells
Protocol: Aldose reductase assays were as described in Nishimura C., Yamaoka T., Mizutani M., Yamashita K., Akera T., Tanimoto T., Purification And Characterization Of The Recombinant Human Aldose Reductase Expressed In Baculovirus System, Biochem. Biophys. Acta, Jun. 24, 1991; 1078(2):171-8.
Briefly, Dimesna (0-20 μM) was incubated at 37° C. with aldose reductase (0.0016 units, human recombinant, expressed in SF 9 cells) and NADPH (0.15 mM) in sodium phosphate buffer (100 mM, pH 6.2). To initiate assays, glucose (10-150 mM) was added to reactions and the decrease in absorbance at 340 nm (oxidation of NADPH) was monitored. Assays were run in duplicate or triplicate. Slopes were calculated using Varian-Cary software package 2.0 and averaged. In all cases errors were 4% or less. Lineweaver Burk analysis (Enzyme Kinetics, version 1.61) was used to calculate inhibition constants.

[2] = test system: mice; details: mouse, in vivo; cited from earlier work
[3] = test system: dogs; details: dog, in vivo; cited from earlier work
[4] = test system: humans; details: in vivo; cited from earlier work

O=S(=O)([O-])CCSSCCS(=O)(=O)[O-].[Na+].[Na+]
Mode of inhibition of the aldose reductase reaction [1]: uncompetitive inhibition | Adverse effects after intravenous administration [2]: no adverse effects | Adverse effects after intravenous administration [3]: no adverse effects | Adverse effects after administration to humans [4]: no adverse effects
